Measurements from patent US10519177B2, “Heterocyclic compounds and uses thereof” (Plexxikon Inc., priority 2013, dated 2019).

Columns and labels:
BRD4-BD12 (1-477) = BRD4-BD12 (1-477) (Homo sapiens (Human), UniProt O60885); test: Alphascreen binding assay BRD4-BD12; conditions: BRD4(1 2) H4; read-out: Biochemical activity (IC50 μM) BRD4(1 2) H4
Procedure, shortened: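 First, compound was preincubated 1 h at room temperature with the His-tagged BRD4 protein (BD1 44-164 or tandem BD12 1-477) and acetylated H4 peptide. Next, donor and acceptor beads were added at 7.5 μg/ml final. After 30 min, AlphaScreen emission was recorded.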

MV-4-11 cells = test: Oncology cell growth assay MV-4-11 (CellTiter Glo); type: cell-based; conditions: Homo sapiens, MV4-11, 72 h; MV-4-11, 3d growth; read-out: Cell activity (IC50 μM) MV-4-11 3d-Growth
Procedure, shortened: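 MV-4-11 AML cells (MLL-AF4), 3000 per well, exposed to 8-point 1:3 compound titration from 10 μM top concentration (0.2% DMSO) for 72 h. Viability by CellTiter Glo luminescence, normalized to DMSO controls; pIC50 from four-parameter curve fit.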

SMILES	IC50 (BRD4-BD12 (1-477))	IC50 (MV-4-11 cells)
COC(=O)c1ccc(-c2cn(C(c3ccccn3)C3CCC3)c3cc(-c4c(C)noc4C)cnc23)cc1 (stereo not drawn) [P-1011, methyl 4-[1-[cyclobutyl(2-pyridyl)methyl]-6-(3,5-dimethylisoxazol-4-yl)pyrrolo[3,2-b]pyridin-3-yl]benzoate]	< 1 µM	< 1 µM
Cc1noc(C)c1-c1cnc2c(-c3ccc(C(=O)O)cc3)cn(C(c3ccccn3)C3CCOCC3)c2c1 (stereo not drawn) [P-1036, 4-[6-(3,5-dimethylisoxazol-4-yl)-1-[2-pyridyl(tetrahydropyran-4-yl)methyl]pyrrolo[3,2-b]pyridin-3-yl]benzoic acid]	< 1 µM	< 1 µM
CC[C@@H](c1ccccn1)n1cc(-c2ccc(C3(C(=O)O)CC3)cc2)c2ncc(-c3c(C)noc3C)cc21 [P-0969, 1-[4-[6-(3,5-dimethylisoxazol-4-yl)-1-[(1S)-1-(2-pyridyl)propyl]pyrrolo[3,2-b]pyridin-3-yl]phenyl]cyclopropanecarboxylic acid]	< 1 µM	< 1 µM
Cc1noc(C)c1-c1cnc2c(I)cn(Cc3ccccc3F)c2c1 [P-0924, 4-[1-[(2-fluorophenyl)methyl]-3-iodo-pyrrolo[3,2-b]pyridin-6-yl]-3,5-dimethyl-isoxazole]	< 1 µM	< 1 µM
COC(=O)c1ccc(-c2cn(Cc3ccc(F)cn3)c3cc(-c4c(C)noc4C)cnc23)cc1 [P-0918, methyl 4-[6-(3,5-dimethylisoxazol-4-yl)-1-[(5-fluoro-2-pyridyl)methyl]pyrrolo[3,2-b]pyridin-3-yl]benzoate]	< 1 µM	< 1 µM
CC[C@H](c1ccccn1)n1cc(I)c2ncc(-c3c(C)noc3C)cc21 [P-0956, 4-[3-iodo-1-[(1R)-1-(2-pyridyl)propyl]pyrrolo[3,2-b]pyridin-6-yl]-3,5-dimethyl-isoxazole]	< 1 µM	< 1 µM
COC(=O)c1ccc(-c2cn(C(c3ccccn3)C3CCCC3)c3cc(-c4c(C)noc4C)cnc23)cc1 (stereo not drawn) [P-0993, methyl 4-[1-[cyclopentyl(2-pyridyl)methyl]-6-(3,5-dimethylisoxazol-4-yl)pyrrolo[3,2-b]pyridin-3-yl]benzoate]	< 1 µM	< 1 µM
Cc1noc(C)c1-c1ccc2c(-c3ccc(CC(=O)O)cc3)cn([C@@H](C)c3ccccn3)c2c1 [P-1031, 2-[4-[6-(3,5-dimethylisoxazol-4-yl)-1-[(1S)-1-(2-pyridyl)ethyl]indol-3-yl]phenyl]acetic acid]	< 1 µM	< 1 µM
Cc1noc(C)c1-c1cnc2c(-c3ccc(CC(=O)O)cc3)cn(C(c3ccccn3)C3CCCCC3)c2c1 (stereo not drawn) [P-1018, 2-[4-[1-[cyclohexyl(2-pyridyl)methyl]-6-(3,5-dimethylisoxazol-4-yl)pyrrolo[3,2-b]pyridin-3-yl]phenyl]acetic acid]	< 1 µM	< 1 µM
CC[C@@H](c1ccccn1)n1cc(-c2ccc(F)c(C(=O)O)c2)c2ncc(-c3c(C)noc3C)cc21 [P-1023, 5-[6-(3,5-dimethylisoxazol-4-yl)-1-[(1S)-1-(2-pyridyl)propyl]pyrrolo[3,2-b]pyridin-3-yl]-2-fluoro-benzoic acid]	< 1 µM	< 1 µM
Cc1noc(C)c1-c1ccc2c(-c3ccc(C(=O)O)cc3F)cn(C(c3ccccc3)c3ccccn3)c2c1 (stereo not drawn) [P-1044, 4-[6-(3,5-dimethylisoxazol-4-yl)-1-[phenyl(2-pyridyl)methyl]indol-3-yl]-3-fluoro-benzoic acid]	< 1 µM	< 1 µM
COC(=O)c1ccc(-c2cn(Cc3cccc(OC)n3)c3cc(-c4c(C)noc4C)cnc23)cc1 [P-0930, methyl 4-[6-(3,5-dimethylisoxazol-4-yl)-1-[(6-methoxy-2-pyridyl)methyl]pyrrolo[3,2-b]pyridin-3-yl]benzoate]	< 1 µM	1 to 10 µM
COC(=O)c1ccc(-c2cn(Cc3ccccc3F)c3cc(-c4c(C)noc4C)cnc23)cc1 [P-0925, methyl 4-[6-(3,5-dimethylisoxazol-4-yl)-1-[(2-fluorophenyl)methyl]pyrrolo[3,2-b]pyridin-3-yl]benzoate]	< 1 µM	< 1 µM
Cc1ccc(-c2cn(CC3(C)CCOCC3)c3cc(-c4c(C)noc4C)cnc23)cn1 [P-0972, 3,5-dimethyl-4-[3-(6-methyl-3-pyridyl)-1-[(4-methyltetrahydropyran-4-yl)methyl]pyrrolo[3,2-b]pyridin-6-yl]isoxazole]	< 1 µM	< 1 µM
COC(=O)c1ccc(-c2cn([C@H](c3ccccn3)C3CC3)c3cc(-c4c(C)noc4C)cnc23)cc1 [P-0989, methyl 4-[1-[(S)-cyclopropyl(2-pyridyl)methyl]-6-(3,5-dimethylisoxazol-4-yl)pyrrolo[3,2-b]pyridin-3-yl]benzoate]	< 1 µM	< 1 µM
COc1cccc(Cn2cc(I)c3ncc(-c4c(C)noc4C)cc32)n1 [P-0929, 4-[3-iodo-1-[(6-methoxy-2-pyridyl)methyl]pyrrolo[3,2-b]pyridin-6-yl]-3,5-dimethyl-isoxazole]	< 1 µM	< 1 µM
Cc1noc(C)c1-c1ccc2c(-c3cnn(C)c3)cn(C(c3ccccc3)c3ccccn3)c2c1 (stereo not drawn) [P-1040, 3,5-dimethyl-4-[3-(1-methylpyrazol-4-yl)-1-[phenyl(2-pyridyl)methyl]indol-6-yl]isoxazole]	< 1 µM	< 1 µM
COC(=O)Cc1ccc(-c2cn(C(c3ccccn3)C3CCCC3)c3cc(-c4c(C)noc4C)cnc23)cc1 (stereo not drawn) [P-0994, methyl 2-[4-[1-[cyclopentyl(2-pyridyl)methyl]-6-(3,5-dimethylisoxazol-4-yl)pyrrolo[3,2-b]pyridin-3-yl]phenyl]acetate]	< 1 µM	< 1 µM
COC(=O)c1ccc(-c2cn(Cc3ccccc3C#N)c3cc(-c4c(C)noc4C)cnc23)cc1 [P-0922, methyl 4-[1-[(2-cyanophenyl)methyl]-6-(3,5-dimethylisoxazol-4-yl)pyrrolo[3,2-b]pyridin-3-yl]benzoate]	< 1 µM	< 1 µM
Cc1noc(C)c1-c1ccc2c(-c3cnc(C4CC4)nc3)cn(C(c3ccccc3)c3ccccn3)c2c1 (stereo not drawn) [P-1042, 4-[3-(2-cyclopropylpyrimidin-5-yl)-1-[phenyl(2-pyridyl)methyl]indol-6-yl]-3,5-dimethyl-isoxazole]	< 1 µM	< 1 µM
Cc1noc(C)c1-c1ccc2c(-c3ccc(C(=O)O)c(F)c3)cn(C(c3ccccc3)c3ccccn3)c2c1 (stereo not drawn) [P-1043, 4-[6-(3,5-dimethylisoxazol-4-yl)-1-[phenyl(2-pyridyl)methyl]indol-3-yl]-2-fluoro-benzoic acid]	< 1 µM	< 1 µM
COC(=O)c1ccc(-c2cn(C(c3ccccn3)C3CCOCC3)c3cc(-c4c(C)noc4C)cnc23)cc1 (stereo not drawn) [P-1035, methyl 4-[6-(3,5-dimethylisoxazol-4-yl)-1-[2-pyridyl(tetrahydropyran-4-yl)methyl]pyrrolo[3,2-b]pyridin-3-yl]benzoate]	< 1 µM	< 1 µM
Cc1noc(C)c1-c1cnc2ccn(C(c3ccccc3)c3ccccn3)c2c1 (stereo not drawn) [P-0913, 3,5-dimethyl-4-[1-[phenyl(2-pyridyl)methyl]pyrrolo[3,2-b]pyridin-6-yl]isoxazole]	< 1 µM	< 1 µM
COc1ccccc1Cn1cc(-c2ccc(C(=O)O)cc2)c2ncc(-c3c(C)noc3C)cc21 [P-0934, 4-[6-(3,5-dimethylisoxazol-4-yl)-1-[(2-methoxyphenyl)methyl]pyrrolo[3,2-b]pyridin-3-yl]benzoic acid]	< 1 µM	< 1 µM
